Literature values, collected in article PMC6472032 (Marine Drugs, 2019).

Settings: in vivo; cited from earlier work

**Q.** With desmopressin as the substance, how does the mean terminal half-life read?
**A.** 3.7 h
